We go through 1 compound from article PMC8466755, “GPCR Pharmacological Profiling of Aaptamine from the Philippine Sponge Stylissa sp. Extends Its Therapeutic Potential for Noncommunicable Diseases” (Molecules, 2021).

The target in one experiment is OPRK1 (Homo sapiens, UniProt P41145). Briefly: PathHunter β-arrestin primary screen, antagonist mode (potentiator hit). Type of experiment: cell-based. The following applies: control agonist at EC80, negative inhibition = potentiation, read-out: % Activation or inhibition, primary screen. The method, then: (§1) Aaptamine (20 µM) was profiled in gpcrMAX panel biosensor assays (in agonist and antagonist modes) against a panel of 168 GPCRs. The assay was performed by DiscoverX Corporation (Fremont, CA) using PathHunter β -arrestin enzyme fragment complementation (EFC) technology, in a similar way to that described elsewhere. The PathHunter cell lines were taken from freezer stocks according to standard procedures. A total of 20 µL of cells were seeded into white 384-well plates and incubated at 37 °C for the appropriate time prior to testing.
Sequence of OPRK1 (P41145 whole entry, the tested form may be a part): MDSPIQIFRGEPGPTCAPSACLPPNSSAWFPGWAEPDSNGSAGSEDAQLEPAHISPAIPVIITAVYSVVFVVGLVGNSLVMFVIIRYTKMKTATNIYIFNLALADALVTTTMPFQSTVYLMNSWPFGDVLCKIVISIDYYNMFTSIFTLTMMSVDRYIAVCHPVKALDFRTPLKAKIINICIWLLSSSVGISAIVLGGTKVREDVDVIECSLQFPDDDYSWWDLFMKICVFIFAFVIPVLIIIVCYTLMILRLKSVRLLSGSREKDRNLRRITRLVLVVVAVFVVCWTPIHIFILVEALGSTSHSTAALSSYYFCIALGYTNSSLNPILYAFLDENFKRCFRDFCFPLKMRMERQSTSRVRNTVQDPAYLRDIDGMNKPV
(§2) For antagonist determination, PathHunter cells were preincubated with aaptamine followed by the addition of an agonist. In this assay format, the standard agonist was added at an EC80 concentration. To the plate that contained the cells, 5 µL of the 5X sample was added and incubated for 30 min at 37 °C or room temperature. After the incubation period, 5 µL of the 6X EC80 agonist in an assay buffer was added to the cells and incubated for additional 90 or 180 min at 37 °C or room temperature.

Another experiment concerns the target T1, CCR3 (Homo sapiens, UniProt P51677).
T1 sequence (P51677 1-355): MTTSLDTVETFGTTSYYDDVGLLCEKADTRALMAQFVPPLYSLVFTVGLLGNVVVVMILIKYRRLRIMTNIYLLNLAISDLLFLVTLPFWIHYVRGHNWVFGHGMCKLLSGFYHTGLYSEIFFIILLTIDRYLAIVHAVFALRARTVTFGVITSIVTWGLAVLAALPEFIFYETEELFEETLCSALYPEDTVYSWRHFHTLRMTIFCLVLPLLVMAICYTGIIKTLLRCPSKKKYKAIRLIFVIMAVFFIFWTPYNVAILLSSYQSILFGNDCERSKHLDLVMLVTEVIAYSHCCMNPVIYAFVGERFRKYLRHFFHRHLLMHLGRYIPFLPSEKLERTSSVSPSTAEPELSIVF
The experiment is described as above. Particulars: control agonist at EC80, negative inhibition = potentiation, read-out: Primary Screen Maximal Response, % Inhibition or Activation. Type of experiment: cell-based. The procedure:
as §1, §2

The next experiment has as its target T2, DRD4 (Homo sapiens, UniProt P21917).
T2 sequence (P21917 1-419): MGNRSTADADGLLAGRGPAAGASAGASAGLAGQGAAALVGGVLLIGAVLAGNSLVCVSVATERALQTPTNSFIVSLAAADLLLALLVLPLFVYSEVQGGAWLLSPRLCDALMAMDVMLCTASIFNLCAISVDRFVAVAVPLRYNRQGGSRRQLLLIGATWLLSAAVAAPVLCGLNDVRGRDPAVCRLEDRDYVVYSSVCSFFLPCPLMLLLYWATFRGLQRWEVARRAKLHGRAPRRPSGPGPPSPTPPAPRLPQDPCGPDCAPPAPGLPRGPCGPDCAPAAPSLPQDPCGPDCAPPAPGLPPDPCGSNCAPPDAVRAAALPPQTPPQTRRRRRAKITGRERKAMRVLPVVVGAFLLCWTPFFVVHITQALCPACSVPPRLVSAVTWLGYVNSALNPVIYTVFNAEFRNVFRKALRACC
Briefly: PathHunter β-arrestin assay, antagonist mode. Type of experiment: cell-based.

Another experiment deals with p21. Set-up: method as in doi:10.1016/j.tetlet.2007.01.113. Particulars: cited from earlier work.
In the next experiment the target is ADRB2 (Homo sapiens, UniProt P07550). Briefly: PathHunter β-arrestin assay, antagonist mode. Type of experiment: cell-based.
Sequence of ADRB2 (P07550 whole entry): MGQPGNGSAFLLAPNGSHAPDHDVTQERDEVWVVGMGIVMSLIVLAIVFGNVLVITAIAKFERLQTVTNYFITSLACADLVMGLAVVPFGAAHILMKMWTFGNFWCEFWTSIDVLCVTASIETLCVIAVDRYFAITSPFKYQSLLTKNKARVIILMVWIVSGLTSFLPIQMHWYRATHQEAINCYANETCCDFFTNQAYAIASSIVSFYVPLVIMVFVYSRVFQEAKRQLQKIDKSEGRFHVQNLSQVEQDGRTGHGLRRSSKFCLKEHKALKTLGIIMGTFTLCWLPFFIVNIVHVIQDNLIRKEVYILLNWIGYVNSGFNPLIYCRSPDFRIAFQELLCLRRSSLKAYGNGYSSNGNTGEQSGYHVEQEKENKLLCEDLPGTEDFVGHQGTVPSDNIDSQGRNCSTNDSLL
Experiment [1] addresses delta opioid receptor (δ-OR, OPRD1). Further details: method as in PMID 27744679. Particulars: calcium mobilization pathway; read-out: EC50 agonist, delta opioid receptor; cited from earlier work. For orientation: Calcium flux is commonly read through the fluorescence of an indicator in the cells.
For experiment [2], the target named is mu opioid receptor (μ-OR). Further details: method as in PMID 27744679. Particulars: read-out: EC50 agonist, mu opioid receptor; cited from earlier work.
In a further experiment the test system is proteasome. Set-up: method as in PMID 20451377. The following applies: read-out: proteasome inhibitory activity IC50; cited from earlier work.
A further experiment has as its target T3, CCR1 (Homo sapiens, UniProt P32246).
T3 sequence (P32246 1-355): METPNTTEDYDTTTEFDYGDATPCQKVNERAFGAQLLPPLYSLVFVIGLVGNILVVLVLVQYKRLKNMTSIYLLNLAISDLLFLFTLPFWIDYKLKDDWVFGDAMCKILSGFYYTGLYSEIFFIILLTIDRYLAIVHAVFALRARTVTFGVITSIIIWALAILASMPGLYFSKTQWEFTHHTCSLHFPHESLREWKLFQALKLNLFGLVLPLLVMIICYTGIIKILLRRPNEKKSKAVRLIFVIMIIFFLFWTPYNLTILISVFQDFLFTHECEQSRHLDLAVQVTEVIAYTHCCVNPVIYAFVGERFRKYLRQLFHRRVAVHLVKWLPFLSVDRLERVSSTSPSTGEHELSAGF
Briefly: PathHunter β-arrestin assay, agonist mode. Type of experiment: cell-based. The method, then:
as §1
For agonist determination, aaptamine was incubated with PathHunter cell lines to induce a response. To increase the concentration, intermediate dilution from 20 µM of aaptamine was performed to generate a 5X sample in an assay buffer. Then, 5 µL of 5X sample was added to the plate with PathHunter cells and incubated for 90 or 180 min at 37 °C or room temperature. The percentage activity of aaptamine was calculated following this formula: % activity = 100% × (mean RLU of test sample − mean RLU of vehicle control)/(mean MAX control ligand − mean RLU of vehicle control).
Hit validation was performed by subjecting the aaptamine to an agonist, antagonist, and positive allosteric modulation (PAM) secondary screen utilizing thirteen GPCR biosensor assays (Arrestin) against the following targets: ADRA2A, ADRA2C, ADRB2, CCR1, CCR3, CXCR3, CXCR7, DRD2L, DRD2S, DRD4, HTR1E, OPRK1, and SSTR1. The assays were performed at 10-point concentrations using three-fold serial dilutions in duplicate. For all the assay formats, the final assay vehicle concentration was 1%.

For a further experiment, the target named is DRD2S (Homo sapiens, UniProt P14416). Briefly: PathHunter β-arrestin assay, antagonist mode. Type of experiment: cell-based. The procedure: as §1, §2
Sequence of DRD2S (P14416 1-414 isoform P14416-2): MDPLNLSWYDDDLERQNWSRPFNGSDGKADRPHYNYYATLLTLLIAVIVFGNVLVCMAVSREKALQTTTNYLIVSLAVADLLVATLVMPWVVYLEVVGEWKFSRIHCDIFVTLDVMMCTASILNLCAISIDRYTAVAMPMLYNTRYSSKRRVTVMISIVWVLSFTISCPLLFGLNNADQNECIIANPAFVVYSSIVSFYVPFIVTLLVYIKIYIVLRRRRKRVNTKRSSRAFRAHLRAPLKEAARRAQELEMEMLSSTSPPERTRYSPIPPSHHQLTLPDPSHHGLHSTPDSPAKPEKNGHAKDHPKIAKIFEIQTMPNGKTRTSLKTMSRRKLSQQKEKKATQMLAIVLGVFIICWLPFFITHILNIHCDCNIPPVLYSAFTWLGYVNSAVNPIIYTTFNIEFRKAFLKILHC
Hit validation was performed by subjecting the aaptamine to an agonist, antagonist, and positive allosteric modulation (PAM) secondary screen utilizing thirteen GPCR biosensor assays (Arrestin) against the following targets: ADRA2A, ADRA2C, ADRB2, CCR1, CCR3, CXCR3, CXCR7, DRD2L, DRD2S, DRD4, HTR1E, OPRK1, and SSTR1. […]

The mark [3] stands for this setting: dose-response analysis, read-out: Dose-Response Maximal Response, % Inhibition.

pEC50, pIC50: −log10 of the molar value. Where only a bound is given, the exact number is not on record here.

Procedure for ADRB2: (§3) The assay was performed by DiscoverX Corporation (Fremont, CA) using PathHunter β -arrestin enzyme fragment complementation (EFC) technology, in a similar way to that described elsewhere [35, 36]. The PathHunter cell lines were taken from freezer stocks according to standard procedures. A total of 20 µL of cells were seeded into white 384-well plates and incubated at 37 °C for the appropriate time prior to testing.
Procedure for DRD4: as §3

The inhibition is the drop in the measured response relative to a control, in per cent. One may read the pIC50 as the negative decadic logarithm of the IC50, by convention in mol/L. For the compound `COc1cc2ccnc3c2c(c1OC)NC=C3` [aaptamine], the inhibition at 20 µM on OPRK1 was -46%. Further, the Emax at 20 µM on CCR3 was 49%. Also, the Emax on DRD4 (setting [3]) turned out to be 94.5%; on ADRB2 (setting [3]) it was 96.5%; at CCR1 (dose-response analysis, read-out: Dose-Response Maximal Response, % Activation), 50.2%; at DRD2S (setting [3]), 74.4%. Besides, the pIC50 at DRD4 (dose-response, antagonist mode) is 5.16; against ADRB2 (dose-response, antagonist mode), 6.70; in the experiment on proteasome, 4.72; on DRD2S (dose-response, antagonist mode), 4.59. Besides, the “selectivity for DRD4 among the dopamine receptors” value at DRD4 (versus DRD2S and DRD2L, from IC50 values) is recorded as 3.7- to 5.6 fold. Also, the “concentrations that increased the expression of p21” value with p21 was 20 to 50 µM. For the same compound, the “selectivity for ADRB2 over ADRA2C” value on ADRB2 (from IC50 values) is on record as above 50 fold. Moreover, the pEC50 was 5.29 in experiment [1]; 5.00 in experiment [2]; 4.93 on CCR1 (dose-response, agonist mode).
